Reference: PMC11002876, “KcsA-Kv1.x chimeras with complete ligand-binding sites provide improved predictivity for screening selective Kv1.x blockers” (The Journal of Biological Chemistry, 2024)
Where a chain is given by its changes, count along the chain named. Where two headings read alike, the source gives them in different places. Where a SMILES comes first, the peptide text is derived from it.

How the values were obtained:
[1] = molecular target: T1, KcsA-Kv1.3 T-only chimera (Streptomyces lividans, UniProt P0A334, A54D/A57S/G53D/G56T/I60S/L59F/Q58G/R52A/R64D/T61S/Y62I); experiment: Phage-binding competition assay, KcsA-Kv1.3 T-only; design: species or system human Kv1.3 turret in Streptomyces lividans KcsA; settings: for IC50: HgTx1-phage competition, T-only KcsA-Kv1.3, value given in figure, sigmoidal fit to means of three replicates, read-out: IC50 (Fig. 6E); for Rank, T-only chimera (Kv1.3): rank by competition IC50 among Vm24, HgTx1, KTX1
T1 construct: made in house; host or cells: E. coli XL1-Blue (pQE30)
T1 sequence (P0A334 1-160 R52A/G53D/A54D/G56T/A57S/Q58G/L59F/I60S/T61S/Y62I/R64D): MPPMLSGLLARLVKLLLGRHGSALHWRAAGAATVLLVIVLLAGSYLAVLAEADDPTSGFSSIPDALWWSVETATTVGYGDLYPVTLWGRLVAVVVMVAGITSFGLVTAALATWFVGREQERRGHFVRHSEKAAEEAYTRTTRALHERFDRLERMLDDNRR
Procedure: (§1) Phage stock solutions were diluted to working concentration with phage resuspension buffer supplemented with 2 mM DDM. For protein immobilization, the following amounts were used in a final volume of 50 μl/well: wt KcsA, 0.1 μg; KcsA-Kv1.1 T-only, 0.005 μg; KcsA-Kv1.1 T+F, 0.02 μg; KcsA-Kv1.2 T-only, 0.01 μg; KcsA-Kv1.2 T+F, 0.1 μg; KcsA-Kv1.3 T-only, 0.01 μg; and KcsA-Kv1.3 T+F, 0.1 μg. Protein samples were diluted in 50 μl of storage buffer (20 mM Tris pH8.0, 300 mM KCl, 2 mM DDM) and were added to the designated wells of a Pierce Clear, 96-Well Nickel Coated Plate (15442, Thermo Fisher Scientific), then incubated for 1 h at room temperature on a horizontal shaker at 130 rpm. The plate was blocked for 1 h at room temperature with 180 μl/well TBS-BSA supplemented with 1 mM DDM. Following blocking, the wells were washed 4× with washing buffer (300 μl TBS-Tween, 0.1% v/v) using a Wellwash Versa microplate washer (Thermo Fisher Scientific); then 50 μl phage solution (in TBS-BSA-Tween, 0.1% v/v, 2 mM DDM) at determined phage concentration was added to the wells and incubated for 1 h at room temperature on a horizontal shaker. The plate was washed 4× with washing buffer, then 50 μl anti-M13 IgG HRP (MA5-36125, Invitrogen) diluted to 1:2500 in TBS-Tween (0.1% v/v) was added to the wells and incubated for 1 h at room temperature. The plate was washed again 4× with 300 μl/well washing buffer. Finally, 50 μl/well 1-Step Ultra TMB-ELISA solution (34028, Thermo Fisher Scientific) was added to the wells, and the developing signal was stopped with 50 μl 1M HCl after 5 to 10 min. The light absorbance signal was read at 450 nm with Byonoy absorbance 96 plate reader (Byonoy GmbH).
(§2) For protein immobilization, the following amounts were used in a final volume of 50 μl/well: KcsA-Kv1.1 T-only, 0.005 μg; KcsA-Kv1.1 T+F, 0.01 μg; KcsA-Kv1.2 T-only, 0.025 μg; KcsA-Kv1.2 T+F, 0.0125 μg; KcsA-Kv1.3 T-only, 0.01 μg; and KcsA-Kv1.3 T+F, 0.1 μg. Protein samples were diluted in storage buffer. Binding of given concentrations of relevant ligand-displaying phages quantified by light absorbance ([…]) were investigated in a similar manner as in phage ELISA-binding assay, while different concentrations of competing toxin test substances were applied simultaneously. The results were converted to percent inhibitions (percent displacement) of the indicator phage binding, and relative affinities of the tested toxins were assessed by plotting percent displacements against log concentrations and determining half maximal inhibitory concentrations (IC50) by sigmoidal curve fitting using “Sigmoidal dose-response (variable slope) with least squares method” algorithm in GraphPad Prism 8 using the following equation: Y=Bottom+Top−Bottom/1+10^(LogEC50−×)⋅HillSlope

[2] = molecular target: T2, KcsA-Kv1.1 T-only chimera (Streptomyces lividans, UniProt P0A334, A54E/A57S/G53E/G56E/I60S/L59F/P55A/Q58H/R52A/R64D/T61S/Y62I); experiment: Phage-binding competition assay, KcsA-Kv1.1 T-only; design: species or system human Kv1.1 turret in Streptomyces lividans KcsA
T2 sequence (P0A334 1-160 R52A/G53E/A54E/P55A/G56E/A57S/Q58H/L59F/I60S/T61S/Y62I/R64D): T1 sequence (P0A334 1-160 R52A/G53D/A54D/G56T/A57S/Q58G/L59F/I60S/T61S/Y62I/R64D) with D53E, D54E, P55A, T56E, G58H
Procedure: as §1, §2

[3] = molecular target: T3, KcsA-Kv1.1 T-only chimera (Streptomyces lividans, UniProt P0A334, R52A/G53E/A54E/P55A/G56E/A57S/Q58H/L59F/I60S/T61S/Y62I/R64D); experiment: Phage-binding competition assay, KcsA-Kv1.1 T-only; design: species or system human Kv1.1 turret in Streptomyces lividans KcsA; settings: for competition binding to KcsA-Kv1.1 T-only, in words: ShK-phage competition, native peptide, Fig. 8E (ligand-binding pattern); for Rank, T-only chimera (Kv1.1): rank by competition IC50 among ShK, KTX1, MTX
T3 sequence (P0A334 1-160 R52A/G53E/A54E/P55A/G56E/A57S/Q58H/L59F/I60S/T61S/Y62I/R64D): T1 sequence (P0A334 1-160 R52A/G53D/A54D/G56T/A57S/Q58G/L59F/I60S/T61S/Y62I/R64D) with D53E, D54E, P55A, T56E, G58H
Procedure: as §1, §2

[4] = displacement of ShK-phage, KcsA-Kv1.1 T-only 0.005 μg/well on nickel-coated plate, mean ± SD (n = 3), NQ = not quantifiable, read-out: IC50, T-only chimera (Kv1.1)

Compound	IC50 [1] [nM]	Rank, T-only chimera (Kv1.3) [1]	IC50 [2, 4] [nM]	competition binding to KcsA-Kv1.1 T-only, in words [3]	Rank, T-only chimera (Kv1.1) [3]	competition binding to KcsA-Kv1.1 T-only, in words ([3]; listed as MTX1)	IC50 ([2]; ShK-phage competition, T-only KcsA-Kv1.1, value given in figure, sigmoidal fit to means of three replicates, read-out: IC50 (Fig. 8E)) [nM]
CC[C@H](C)[C@@H]1NC(=O)CNC(=O)[C@H](Cc2ccccc2)NC(=O)[C@H](CCC(N)=O)NC(=O)[C@H](C)NC(=O)[C@H](CCCCN)NC(=O)[C@@H]2CSSC[C@@H](C(=O)N[C@@H](Cc3ccc(O)cc3)C(=O)N3CCC[C@H]3C(=O)N[C@@H](Cc3c[nH]cn3)C(=O)O)NC(=O)[C@H](CCCCN)NC(=O)[C@@H]3CSSC[C@H](NC(=O)[C@H](CCC(N)=O)NC(=O)[C@H](CCCCN)NC(=O)[C@@H]4CCCN4C(=O)[C@H](CO)NC(=O)[C@H]([C@@H](C)O)NC(=O)[C@@H](NC(=O)[C@H](CCCCN)NC(=O)[C@@H](NC(=O)[C@H](CC(=O)O)NC(=O)[C@@H](NC(=O)[C@@H](NC(=O)[C@@H](N)[C@@H](C)O)C(C)C)[C@@H](C)CC)C(C)C)CSSC[C@H](NC(=O)[C@H](CCCCN)NC(=O)[C@H](C)NC(=O)CNC(=O)[C@H](C)NC(=O)[C@H](CCCNC(=N)N)NC1=O)C(=O)N[C@@H](CCSC)C(=O)N[C@@H](CC(N)=O)C(=O)NCC(=O)N[C@@H](CCCCN)C(=O)N3)C(=O)N[C@@H](CC(C)C)C(=O)N1CCC[C@H]1C(=O)N1CCC[C@H]1C(=O)N2 [HgTx1, Hongotoxin-1] (HELM PEPTIDE1{T.V.I.D.V.K.C.T.S.P.K.Q.C.L.P.P.C.K.A.Q.F.G.I.R.A.G.A.K.C.M.N.G.K.C.K.C.Y.P.H}$PEPTIDE1,PEPTIDE1,7:R3-29:R3|PEPTIDE1,PEPTIDE1,13:R3-34:R3|PEPTIDE1,PEPTIDE1,17:R3-36:R3$$$V2.0; N-terminus and C-terminus assumed)	0.671	3	–	–	–	–	–
CC[C@H](C)[C@H](NC(=O)[C@H](CCC(=O)O)NC(=O)[C@@H](NC(=O)CN)C(C)C)C(=O)N[C@@H](CC(N)=O)C(=O)N[C@H](C(=O)N[C@@H](CCCCN)C(=O)N[C@H]1CSSC[C@@H]2NC(=O)[C@H](CCCCN)NC(=O)CNC(=O)[C@H](Cc3ccccc3)NC(=O)[C@H](CCCNC(=N)N)NC(=O)[C@H](CCSC)NC(=O)CNC(=O)[C@H](C)NC(=O)[C@H](CC(=O)O)NC(=O)[C@H](CCCCN)NC(=O)[C@@H]3CSSC[C@@H](C(=O)N[C@H](C(=O)N4CCC[C@H]4C(=O)N[C@@H](CCCCN)C(=O)O)[C@@H](C)O)NC(=O)[C@H](Cc4c[nH]cn4)NC(=O)[C@H](CSSC[C@H](NC(=O)[C@H](CCC(N)=O)NC(=O)[C@@H]4CCCN4C(=O)[C@H](CO)NC(=O)CNC(=O)[C@H](CO)NC1=O)C(=O)N[C@@H](CC(C)C)C(=O)N[C@@H](CCCCN)C(=O)N1CCC[C@H]1C(=O)N3)NC(=O)[C@H](CCCCN)NC(=O)[C@H](CCCNC(=N)N)NC(=O)[C@H](CC(N)=O)NC(=O)[C@H](CCSC)NC2=O)C(C)C [KTX1, Kaliotoxin-1]	0.416	1	1.27	ShK > KTX1 > MTX	2	–	–
CC[C@H](C)[C@@H]1NC(=O)[C@@H]2CSSC[C@H](NC(=O)[C@H](CO)NC(=O)[C@@H](N)C(C)C)C(=O)N[C@@H]([C@@H](C)O)C(=O)NCC(=O)N[C@@H](CO)C(=O)N[C@@H](CCCCN)C(=O)N[C@@H](CC(=O)O)C(=O)N[C@@H](CSSC[C@@H](C(=O)N[C@@H](CCCCN)C(=O)N[C@H]3CSSC[C@@H](C(N)=O)NC(=O)CNC(=O)[C@H](Cc4ccc(O)cc4)NC3=O)NC(=O)[C@H](CO)NC(=O)[C@H](CCCCN)NC(=O)[C@H](CC(N)=O)NC1=O)C(=O)N[C@@H](Cc1ccc(O)cc1)C(=O)N[C@@H](C)C(=O)N1CCC[C@H]1C(=O)N[C@H]1CSSC[C@H](NC(=O)CNC(=O)[C@H]([C@@H](C)O)NC(=O)[C@H](CCC(N)=O)NC(=O)[C@H](CCCCN)NC(=O)[C@H](CCCNC(=N)N)NC1=O)C(=O)N1CCC[C@H]1C(=O)N[C@@H](CC(N)=O)C(=O)N[C@@H](C)C(=O)N[C@@H](CCCCN)C(=O)N2 [MTX, Maurotoxin] (HELM PEPTIDE1{V.S.C.T.G.S.K.D.C.Y.A.P.C.R.K.Q.T.G.C.P.N.A.K.C.I.N.K.S.C.K.C.Y.G.C.[am]}$PEPTIDE1,PEPTIDE1,3:R3-24:R3|PEPTIDE1,PEPTIDE1,9:R3-29:R3|PEPTIDE1,PEPTIDE1,13:R3-19:R3|PEPTIDE1,PEPTIDE1,31:R3-34:R3$$$V2.0; N-terminus and C-terminus assumed)	–	–	> 1000	ShK > KTX1 > MTX	3	negligible binding	–
CC[C@H](C)[C@@H]1NC(=O)[C@@H](NC(=O)[C@H](CO)NC(=O)[C@@H](N)CCCNC(=N)N)CSSC[C@@H](C(=O)O)NC(=O)[C@H]([C@@H](C)O)NC(=O)CNC(=O)[C@@H]2CSSC[C@@H]3NC(=O)[C@H](CCC(N)=O)NC(=O)[C@H](Cc4ccccc4)NC(=O)[C@H](C)NC(=O)[C@H]([C@@H](C)O)NC(=O)[C@H](CSSC[C@H](NC(=O)[C@H](Cc4ccccc4)NC(=O)[C@H](CO)NC(=O)[C@H](CC(C)C)NC(=O)[C@H](CCCNC(=N)N)NC(=O)[C@H](Cc4ccc(O)cc4)NC(=O)[C@H](CCCCN)NC(=O)[C@H](CCSC)NC(=O)[C@H](CO)NC(=O)[C@H](Cc4c[nH]cn4)NC(=O)[C@H](CCCCN)NC3=O)C(=O)N[C@@H](CCCNC(=N)N)C(=O)N[C@@H](CCCCN)C(=O)N[C@@H]([C@@H](C)O)C(=O)N2)NC(=O)[C@H](CCCNC(=N)N)NC(=O)[C@H](CO)NC(=O)[C@H](CCCCN)NC(=O)[C@@H]2CCCN2C(=O)[C@H]([C@@H](C)CC)NC(=O)[C@H]([C@@H](C)O)NC(=O)[C@H](CC(=O)O)NC1=O [ShK, Stichodactyla toxin]	–	–	–	ShK > KTX1 > MTX	1	–	0.317
CC[C@H](C)[C@H](NC(=O)[C@H](C)NC(=O)[C@H](C)NC(=O)[C@H](C)N)C(=O)N[C@@H](CO)C(=O)N[C@H]1CSSC[C@@H]2NC(=O)[C@H](CCCCN)NC(=O)CNC(=O)[C@H](CC(N)=O)NC(=O)[C@H](CCCCN)NC(=O)[C@@H]3CSSC[C@@H](C(N)=O)NC(=O)[C@H](Cc4ccc(O)cc4)NC(=O)[C@H](Cc4ccc(O)cc4)NC(=O)[C@@H]4CSSC[C@H](NC(=O)[C@H](CCCCN)NC(=O)[C@@H]5CCCN5C(=O)[C@@H]5CCCN5C(=O)[C@H](CSSC[C@H](NC(=O)[C@H](CCCCN)NC(=O)[C@H](CCCNC(=N)N)NC(=O)[C@H](CC(N)=O)NC(=O)[C@H](CCSC)NC2=O)C(=O)N[C@@H](CCCCN)C(=O)N4)NC(=O)[C@H](CCC(=O)O)NC(=O)[C@@H]2CCCN2C(=O)[C@H](CO)NC(=O)CNC(=O)[C@H](C(C)C)NC1=O)C(=O)N[C@@H](CCCNC(=N)N)C(=O)N[C@@H](C)C(=O)N[C@@H](CCC(N)=O)C(=O)NCC(=O)N3 [Vm24, Vm24 toxin]	0.603	2	–	–	–	–	–
